In US7713994B2 (Wyeth LLC, priority 2005, dated 2010) one finds IC50 data, which are given here for 13 compounds.

The subject of one test is HCT-116. The test can be described thus: Cytotoxicity assay (SRB), HCT-116. It is filed as cell-based. As to conditions: Homo sapiens, HCT-116, 72 h, HCT116 cells, 3 days, SRB; read-out: In Vitro Cellular Activity IC50 HCT116. A digest of the protocol: (§1)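 Cells grown in RPMI 1640 with 5% FBS were treated with compound for three days (HCT-116, LoVo, MCF-7) or six days (BT474). Viable cell mass was quantified by sulforhodamine B staining of TCA-fixed protein and read at 540 nm.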

The target in the next test is T1, cyclin D1/cdk 4 enzyme (Homo sapiens, UniProt P11802).
T1 construct: made in house; host or cells: Sf9 insect cells, recombinant baculovirus
T1 sequence (P11802 whole entry, species assumed): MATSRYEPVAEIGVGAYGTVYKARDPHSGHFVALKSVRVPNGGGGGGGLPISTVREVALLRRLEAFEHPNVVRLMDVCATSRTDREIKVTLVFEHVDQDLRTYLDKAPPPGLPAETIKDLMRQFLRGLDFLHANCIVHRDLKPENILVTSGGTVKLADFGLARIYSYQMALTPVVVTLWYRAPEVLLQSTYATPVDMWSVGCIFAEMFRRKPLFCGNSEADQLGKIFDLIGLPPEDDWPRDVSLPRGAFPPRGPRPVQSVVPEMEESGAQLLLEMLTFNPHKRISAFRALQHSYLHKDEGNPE
T1 sequence (P24385 whole entry partner, species assumed): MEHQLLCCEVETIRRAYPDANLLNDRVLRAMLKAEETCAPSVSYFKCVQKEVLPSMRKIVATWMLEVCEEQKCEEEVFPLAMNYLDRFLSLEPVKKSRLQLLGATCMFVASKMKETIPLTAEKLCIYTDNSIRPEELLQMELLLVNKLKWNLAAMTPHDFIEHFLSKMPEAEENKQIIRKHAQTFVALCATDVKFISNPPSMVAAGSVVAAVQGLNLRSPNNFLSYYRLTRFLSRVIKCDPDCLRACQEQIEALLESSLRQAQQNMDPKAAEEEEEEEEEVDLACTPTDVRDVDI
Description: CDK4 ELISA kinase assay (phospho-Rb ser 795 detection). In kind it is biochemical. Particulars: In Vitro Enzyme Assays, 200 μM ATP, read-out: CDK4 IC50. A digest of the protocol:
(§2)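 Sf9-derived cyclin/CDK, 200 μM ATP, immobilized GST-Rb; 30° C/1 h. Detection: phospho-Ser795 Ab, HRP, TMB, OD450.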
A general note: ELISA stands for enzyme-linked immunosorbent assay.

The subject of the next test is LoVo. The test can be described thus: Cytotoxicity assay (SRB), LoVo. In kind it is cell-based. Particulars: Homo sapiens, LoVo, 72 h, LoVo cells, 3 days, SRB; read-out: In Vitro Cellular Activity IC50 LOVO. A digest of the protocol: as §1
The subject of the next test is BT474. The test can be described thus: Cytotoxicity assay (SRB), BT474. As to conditions: Homo sapiens, BT-474, 144 h, BT474 cells, 6 days, SRB; read-out: In Vitro Cellular Activity IC50 BT474. In kind it is cell-based. Put shortly: as §1
The next test concerns the target T2, cyclin B/CDK1 enzyme (Homo sapiens, UniProt P06493).
T2 construct: purchased New England BioLabs; host or cells: Sf9 insect cells, recombinant baculovirus
Description: CDK1 ELISA kinase assay (phospho-Rb ser 795 detection). In kind it is biochemical. As to conditions: In Vitro Enzyme Assays, read-out: CDK1 IC50. Put shortly:
as §2

Another test deals with T3, cyclin E/CDK2 enzyme (Homo sapiens, UniProt P24941).
T3 construct: made in house; host or cells: Sf9 insect cells, recombinant baculovirus
The test can be described thus: CDK2 ELISA kinase assay (phospho-Rb ser 795 detection). In kind it is biochemical. Particulars: In Vitro Enzyme Assays, read-out: CDK2 IC50. A digest of the protocol:
as §2

The test system of the next test is MCF-7. The test can be described thus: Cytotoxicity assay (SRB), MCF-7. In kind it is cell-based. As to conditions: Homo sapiens, MCF7, 72 h, MCF-7 cells, 3 days, SRB; read-out: In Vitro Cellular Activity IC50 MCF-7. A digest of the protocol:
as §1

Where only a bound is given, the exact number is not on record here.

T2 sequence (P06493 whole entry): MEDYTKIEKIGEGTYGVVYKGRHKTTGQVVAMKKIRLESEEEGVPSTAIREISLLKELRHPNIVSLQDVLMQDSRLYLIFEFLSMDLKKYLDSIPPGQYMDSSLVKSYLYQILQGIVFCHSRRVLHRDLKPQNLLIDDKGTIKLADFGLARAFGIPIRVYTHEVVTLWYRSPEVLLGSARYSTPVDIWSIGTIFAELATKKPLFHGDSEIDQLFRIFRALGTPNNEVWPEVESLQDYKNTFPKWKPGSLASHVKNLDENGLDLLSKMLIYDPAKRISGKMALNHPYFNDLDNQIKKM
T2 sequence (P14635 whole entry partner): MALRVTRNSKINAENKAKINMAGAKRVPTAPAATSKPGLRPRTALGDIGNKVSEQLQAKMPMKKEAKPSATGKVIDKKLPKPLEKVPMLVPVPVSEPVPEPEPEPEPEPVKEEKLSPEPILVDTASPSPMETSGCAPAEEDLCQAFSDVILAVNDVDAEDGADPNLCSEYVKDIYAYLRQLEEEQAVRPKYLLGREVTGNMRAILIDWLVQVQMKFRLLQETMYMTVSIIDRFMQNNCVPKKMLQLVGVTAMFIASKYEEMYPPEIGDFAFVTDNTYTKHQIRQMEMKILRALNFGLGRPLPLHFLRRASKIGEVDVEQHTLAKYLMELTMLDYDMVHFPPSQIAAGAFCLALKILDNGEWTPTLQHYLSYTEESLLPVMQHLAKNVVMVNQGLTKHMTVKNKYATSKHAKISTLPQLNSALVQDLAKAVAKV

For orientation: IC50 means the midpoint of a concentration-inhibition curve. With `C=CC(=O)Nc1cnc(CN/C=C2\C(=O)NC(=O)c3ccc(I)cc32)cc1O` [Example 428, N-(4-Hydroxy-6-{[(6-iodo-1,3-dioxo-2,3-dihydro-1H-isoquinolin-4-ylidenemethyl)-amino]-methyl}-pyridin-3-yl)-acrylamide], the 50% inhibitory concentration (IC50) came to 0.77 µM with HCT-116; 0.13 µM on cyclin D1/cdk 4 enzyme; 0.65 µM with LoVo; 0.07 µM with BT474; 6.4 µM on cyclin B/CDK1 enzyme; 0.7 µM at cyclin E/CDK2 enzyme. Further, the IC50 with MCF-7 was 1.67 µM.

Turning to `CN(C)C(=O)C1CCN(c2ccc(N/C=C3\C(=O)NC(=O)c4ccc(I)cc43)cc2)CC1` [Example 429, 1-(4-{[(Z)-(6-Iodo-1,3-dioxo-2,3-dihydroisoquinolin-4(1H)-ylidene)methyl]amino}phenyl)-N,N-dimethylpiperidine-4-carboxamide], the IC50 in the test with HCT-116 was 21 µM; at cyclin D1/cdk 4 enzyme, 3 µM; with LoVo, 21.1 µM; with BT474, 11.7 µM; on cyclin B/CDK1 enzyme it was more than 50 µM; on cyclin E/CDK2 enzyme, more than 50 µM. The concentration for half-maximal inhibition (IC50) in the test on MCF-7 is more than 50 µM.

With `NC(=O)C1CCN(c2ccc(N/C=C3\C(=O)NC(=O)c4ccc(I)cc43)cc2)CC1` [Example 430, 1-(4-{[(Z)-(6-Iodo-1,3-dioxo-2,3-dihydroisoquinolin-4(1H)-ylidene)methyl]amino}phenyl)piperidine-4-carboxamide], the concentration for half-maximal inhibition (IC50) with HCT-116 was found to be 5.6 µM; at cyclin D1/cdk 4 enzyme, 2.3 µM; in the test on LoVo, 14.9 µM; in the test on BT474, 13.8 µM; at cyclin B/CDK1 enzyme, 19.3 µM; on cyclin E/CDK2 enzyme, 15.4 µM. In addition, in the test on MCF-7, the IC50 is 11.7 µM.

For `O=C1NC(=O)c2ccc(I)cc2/C1=C/Nc1ccc(N2CCC(C(=O)O)CC2)cc1` [Example 431, 1-(4-{[(Z)-(6-Iodo-1,3-dioxo-2,3-dihydroisoquinolin-4(1H)-ylidene)methyl]amino}phenyl)piperidine-4-carboxylic acid], the 50% inhibitory concentration (IC50) in the test on HCT-116 is 6.1 µM; on cyclin D1/cdk 4 enzyme, 1.3 µM; in the test on LoVo it was 5.8 µM; in the test on BT474, 6.4 µM; at cyclin B/CDK1 enzyme it was 8.6 µM; at cyclin E/CDK2 enzyme, 4.1 µM. Besides, the IC50 in the test on MCF-7 stood at 8.8 µM.

In the case of `CON(C)C(=O)C1CCN(c2ccc(N/C=C3\C(=O)NC(=O)c4ccc(I)cc43)cc2)CC1` [Example 432, 1-(4-{[(Z)-(6-Iodo-1,3-dioxo-2,3-dihydroisoquinolin-4(1H)-ylidene)methyl]amino}phenyl)-N-methoxy-N-methylpiperidine-4-carboxamide], the half-maximal inhibitory concentration (IC50) was 11.1 µM with HCT-116; 6.5 µM on cyclin D1/cdk 4 enzyme; 8.5 µM in the test with LoVo; 9.3 µM in the test with BT474; more than 50 µM at cyclin B/CDK1 enzyme; more than 50 µM on cyclin E/CDK2 enzyme. The IC50 in the test on MCF-7 was found to be 24.2 µM.

In the case of `O=C1NC(=O)c2ccc(I)cc2/C1=C/Nc1ccc(N2CCC(CO)CC2)cc1` [Example 434, (4Z)-4-[({4-[4-(Hydroxymethyl)piperidin-1-yl]phenyl}amino)methylene]-6-iodoisoquinoline-1,3(2H,4H)-dione], the concentration for half-maximal inhibition (IC50) in the test with HCT-116 is 4.5 µM; at cyclin D1/cdk 4 enzyme, more than 50 µM; in the test with LoVo, 8.2 µM; in the test on BT474 it was 8.1 µM; at cyclin B/CDK1 enzyme, 40.6 µM; on cyclin E/CDK2 enzyme, more than 50 µM. The IC50 in the test with MCF-7 worked out at 31.5 µM.

Regarding `COCC1CCN(c2ccc(N/C=C3\C(=O)NC(=O)c4ccc(I)cc43)cc2)CC1` [Example 435, (4Z)-6-Iodo-4-[({4-[4-(methoxymethyl)piperidin-1-yl]phenyl}amino)methylene]isoquinoline-1,3(2H,4H)-dione], the IC50 is 3.2 µM in the test on HCT-116; 4.6 µM at cyclin D1/cdk 4 enzyme; 5.2 µM in the test with LoVo; 8.5 µM in the test with BT474; more than 50 µM on cyclin B/CDK1 enzyme; 38.8 µM at cyclin E/CDK2 enzyme. The half-inhibitory concentration (IC50) with MCF-7 amounted to 26 µM.

`CCC1CCCN1Cc1ccc(N/C=C2\C(=O)NC(=O)c3ccc(I)cc32)cc1` (stereo not shown) [Example 436, 4-{[4-(2-Ethyl-pyrrolidin-1-ylmethyl)-phenylamino]-methylene}-6-iodo-4H-isoquinoline-1,3-dione]: the IC50 is 2.5 µM with HCT-116; 0.26 µM at cyclin D1/cdk 4 enzyme; 2.3 µM in the test on LoVo; 0.4 µM in the test on BT474; more than 50 µM at cyclin B/CDK1 enzyme; more than 50 µM at cyclin E/CDK2 enzyme. In addition, in the test with MCF-7, the half-inhibitory concentration (IC50) came to 1.5 µM.

Take `O=C1NC(=O)c2ccc(-c3ccc(Cl)s3)cc2/C1=C/Nc1ccc(CN2CCC[C@H]2CO)cc1` [Example 441, 6-(5-Chloro-thiophen-2-yl)-4-{[4-(2-hydroxymethyl-pyrrolidin-1-ylmethyl)-phenylamino]-methylene}-4H-isoquinoline-1,3-dione]: the IC50 is 1.1 µM in the test on HCT-116; 0.14 µM on cyclin D1/cdk 4 enzyme; 2.9 µM in the test with LoVo; 3.2 µM in the test with BT474; more than 50 µM at cyclin B/CDK1 enzyme; more than 50 µM at cyclin E/CDK2 enzyme. Besides, the IC50 in the test on MCF-7 came to 2.3 µM.

`CN1CCN(c2ccc(N/C=C3\C(=O)NC(=O)c4ccc(I)cc43)c(F)n2)CC1` [Example 445, (4Z)-4-({[2-Fluoro-6-(4-methylpiperazin-1-yl)pyridin-3-yl]amino}methylene)-6-iodoisoquinoline-1,3(2H,4H)-dione]: the IC50 is 1.8 µM in the test with HCT-116; 0.32 µM at cyclin D1/cdk 4 enzyme; 2.7 µM in the test with LoVo; 2.8 µM in the test on BT474; more than 50 µM at cyclin B/CDK1 enzyme; more than 50 µM on cyclin E/CDK2 enzyme. In addition, in the test with MCF-7, the IC50 worked out at 3.2 µM.

As for `CN(C)CCNCC1CCN(c2ccc(N/C=C3\C(=O)NC(=O)c4ccc(I)cc43)cc2)CC1` [Example 446, (4Z)-4-[({4-[4-({[2-(Dimethylamino)ethyl]amino}methyl)piperidin-1-yl]phenyl}amino)methylene]-6-iodoisoquinoline-1,3(2H,4H)-dione], the IC50 in the test on HCT-116 is 1.7 µM; at cyclin D1/cdk 4 enzyme, 0.28 µM; in the test with LoVo, 2.9 µM; with BT474 it was 3.4 µM; at cyclin B/CDK1 enzyme it was more than 50 µM; at cyclin E/CDK2 enzyme it was more than 50 µM. Besides, the IC50 in the test with MCF-7 is 3 µM.

`CN1CCN(c2ccc(N/C=C3\C(=O)NC(=O)c4ccc(I)cc43)c(O)n2)CC1` [Example 447, (4Z)-4-({[2-Hydroxy-6-(4-methylpiperazin-1-yl)pyridin-3-yl]amino}methylene)-6-iodoisoquinoline-1,3(2H,4H)-dione]: the concentration for half-maximal inhibition (IC50) was 2 µM with HCT-116; 7.5 µM on cyclin D1/cdk 4 enzyme; 3.5 µM in the test with LoVo; 3 µM with BT474; 12.9 µM at cyclin B/CDK1 enzyme; 17.6 µM on cyclin E/CDK2 enzyme. The IC50 with MCF-7 was 3.6 µM.

Turning to `CN1CCN(c2ccc(N/C=C3\C(=O)NC(=O)c4ccc(-c5coc(CN6CCCC6)c5)cc43)nc2)CC1` [Example 449, (4Z)-4-({[5-(4-Methylpiperazin-1-yl)pyridin-2-yl]amino}methylene)-6-[5-(pyrrolidin-1-ylmethyl)-3-furyl]isoquinoline-1,3(2H,4H)-dione], the concentration for half-maximal inhibition (IC50) was 2.6 µM in the test with HCT-116; 3.6 µM on cyclin D1/cdk 4 enzyme; 2.2 µM in the test with LoVo; 8.1 µM with BT474; more than 50 µM on cyclin B/CDK1 enzyme; more than 50 µM on cyclin E/CDK2 enzyme. For the same compound, in the test on MCF-7, the IC50 was determined as 3.5 µM.
